According to patent US20240408169A1 (priority 2023, published 2024):
Read-outs that look alike come from different tables or passages of the source. *1 amine or outer side, *2 acyl side, *3 side chain or, on linkers, in order; H or OH if unused. Where a SMILES comes first, the peptide text is derived from it. Bridges are numbered along the chain shown (N, C = ends). [ ]: non-standard residue; d: D form. The star is where a group is joined. X130 = CN([C@@H](Cc1cc(F)ccc1-c1ccn(S(C)(=O)=O)c1)C(=O)[*:2])[*:1]; X186 = CN([C@@H](Cc1cc(Cl)ccc1-c1ccc(N2CCOCC2)cn1)C(=O)[*:2])[*:1]; X208 = CN([C@@H](Cc1cc(F)ccc1-c1cnn(CC(F)F)c1)C(=O)[*:2])[*:1]; NMe3Pal(2-OiBu,5-Cl) = CN[C@@H](Cc1cc(Cl)cnc1OCC(C)C)C(=O)O; NMehhhLys(Me) = CN([C@@H](CCCCCCCN(C)[*:3])C(=O)[*:2])[*:1]; X22 = CN([C@@H](Cc1cc(Cl)ccc1-c1cnn(C)c1)C(=O)[*:2])[*:1]; X176 = CN([C@@H](Cc1cc(F)ccc1-c1cccnc1)C(=O)[*:2])[*:1]; NMe(hhhLys) = CN([C@@H](CCCCCCCN[*:3])C(=O)[*:2])[*:1]; Oxane2carbonyl(2R-CF3) = O=C([C@@]1(C(F)(F)F)CCCCO1)*; Cyclobutanecarbonyl(1-CF3) = O=C(C1(C(F)(F)F)CCC1)*; cBuCO(3,3-F2-1-CF3) = O=C(C1(C(F)(F)F)CC(F)(F)C1)*; NMePhe(2,5-Cl2) = CN[C@@H](Cc1cc(Cl)ccc1Cl)C(=O)O; X25 = CCOc1ncc(Cl)cc1C[C@@H](C(=O)[*:2])N(C)[*:1]; Pro(trans-4-F) = O=C(O)[C@@H]1C[C@@H](F)CN1; Pivaloyl(3,3,3-F3) = CC(C)(C(=O)*)C(F)(F)F; Pro(4,4-F2) = O=C(O)[C@@H]1CC(F)(F)CN1; X155 = C[C@@](O)(C(=O)*)C(F)(F)F; Gly(cPr) = N[C@H](C(=O)O)C1CC1

Tests used:
CyclinB1/CDK1 = molecular target: T1, CyclinB1/CDK1 (Homo sapiens, UniProt P14635); assay: Fluorescence Polarization (FP) competitive binding assay, Cyclin B1/Cdk1;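 further: fluorescence polarization read after equilibration at room temperature, with IC50 taken from serially diluted dose-response curves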
T1 construct: purchased Eurofins, discovery 14-450

NCI-H1048 cells = assay: MTT proliferation assay, NCI-H1048; assay type: cell-based; details: 5 days compound exposure, 1:3 serial dilution starting at 10 μM;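 further: Dose-response in 96-well plates over 8 or 10 concentration points, with exposure spanning 3-4 cell doublings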
CyclinE1/CDK2 = molecular target: T2, CyclinE1/CDK2 (Homo sapiens, UniProt P24864); assay: Fluorescence Polarization (FP) competitive binding assay, Cyclin E1/Cdk2;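 further: readings taken after two-hour equilibration at room temperature in HEPES buffer with NaCl, DTT, NP-40 and BSA, IC50 fitted from eight-concentration serial dilution series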
T2 construct: purchased Eurofins, discovery 14-475

OVCAR3 cells = assay: MTT proliferation assay, OVCAR3; assay type: cell-based; details: 5 days compound exposure, 1:3 serial dilution starting at 10 μM;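 further: compound given as an 8- or 10-point series, one day after plating, with exposure covering roughly 3-4 cell doublings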
CyclinA2/CDK2 = molecular target: T3, CyclinA2/CDK2 (Homo sapiens, UniProt P20248); assay: Fluorescence Polarization (FP) competitive binding assay, Cyclin A2/Cdk2;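 further: plates equilibrated two hours at room temperature before polarization reading, IC50 fitted from eight-concentration compound titration curves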
T3 construct: purchased CRELUX Protein Services

[1] = 10 nM Cyclin B1/Cdk1, 2 nM FAM probe; average of 2-3 independent experiments; read-out: Cyclin B FP IC50
[2] = 10 nM Cyclin E1/Cdk2, 2 nM FAM probe, average of 2-3 independent experiments, read-out: Cyclin E FP IC50
[3] = 8 nM Cyclin A2/Cdk2, 2 nM FAM probe; average of 2-3 independent experiments; read-out: Cyclin A FP IC50
[4] = read-out: Cyclin B FP IC50; 10 nM Cyclin B1/Cdk1, 2 nM FAM probe; average of 2-3 independent experiments
[5] = read-out: Cyclin A FP IC50; 8 nM Cyclin A2/Cdk2, 2 nM FAM probe; average of 2-3 independent experiments

Row | Structure (SMILES) | IC50 (CyclinB1/CDK1; [1]) | GI50 (NCI-H1048 cells) | IC50 (CyclinE1/CDK2; [2]) | GI50 (OVCAR3 cells) | IC50 (CyclinA2/CDK2; [3]) | IC50 (CyclinB1/CDK1; [4]) | IC50 (CyclinE1/CDK2) | IC50 (CyclinA2/CDK2; [5])
1 | CC(C)C[C@@H]1NC(=O)[C@@H](N(C)C(=O)[C@@H](NC(=O)[C@@H]2C[C@@H](F)CN2C(=O)[C@@](C)(O)C(F)(F)F)C2CC2)CCCCCCCNC(=O)[C@H](Cc2cc(Cl)ccc2Cl)N(C)C1=O [Example 10] (X155-[Pro(trans-4-F)][Gly(cPr)][NMe(hhhLys)]L[NMePhe(2,5-Cl2)]; lactam 3-C) | 20 nM | 20 nM | 120 nM | 30 nM | 100 nM | – | – | –
2 | CC(C)C[C@@H]1NC(=O)[C@@H](N(C)C(=O)[C@@H](NC(=O)[C@@H]2C[C@@H](F)CN2C(=O)C2(C(F)(F)F)CC(F)(F)C2)C2CC2)CCCCCCCN(C)C(=O)[C@H](Cc2cc(F)ccc2-c2cccnc2)N(C)C1=O [Example 271] ({cBuCO(3,3-F2-1-CF3)}-[Pro(trans-4-F)][Gly(cPr)][NMehhhLys(Me)]L[X176]; lactam 3-C) | 20 nM | 10 nM | 240 nM | 10 nM | 30 nM | – | – | –
3 | CC(C)C[C@@H]1NC(=O)[C@@H](NC(=O)CNC(=O)[C@@H]2C[C@@H](F)CN2C(=O)C2(C(F)(F)F)CC2)CC=CCCCCNC(=O)[C@H](Cc2cc(Cl)ccc2Cl)N(C)C1=O [Example 3] | 20 nM | 460 nM | 680 nM | 720 nM | 620 nM | – | – | –
4 | CC(C)C[C@@H]1NC(=O)[C@@H](N(C)C(=O)[C@@H](NC(=O)[C@@H]2C[C@@H](F)CN2C(=O)C(C)(C)C(F)(F)F)C2CC2)CCCCCCCN(C)C(=O)[C@H](Cc2cc(Cl)ccc2-c2cnn(C)c2)N(C)C1=O [Example 204] ({Pivaloyl(3,3,3-F3)}-[Pro(trans-4-F)][Gly(cPr)][NMehhhLys(Me)]L[X22]; lactam 3-C) | – | 10 nM | – | 10 nM | – | 20 nM | 160 nM | 20 nM
5 | CCOc1ncc(Cl)cc1C[C@H]1C(=O)N(C)CCCCCCC[C@H](N(C)C(=O)[C@@H](NC(=O)[C@@H]2C[C@@H](F)CN2C(=O)C(C)(C)C(F)(F)F)C2CC2)C(=O)N[C@@H](CC(C)C)C(=O)N1C [Example 269] ({Pivaloyl(3,3,3-F3)}-[Pro(trans-4-F)][Gly(cPr)][NMehhhLys(Me)]L[X25]; lactam 3-C) | 20 nM | 30 nM | 100 nM | 30 nM | 60 nM | – | – | –
6 | CC(C)C[C@@H]1NC(=O)[C@@H](N(C)C(=O)[C@@H](NC(=O)[C@@H]2C[C@@H](F)CN2C(=O)C2(C(F)(F)F)CCC2)C2CC2)CCCCCCCN(C)C(=O)[C@H](Cc2cc(F)ccc2-c2cnn(CC(F)F)c2)N(C)C1=O [Example 92] ({Cyclobutanecarbonyl(1-CF3)}-[Pro(trans-4-F)][Gly(cPr)][NMehhhLys(Me)]L[X208]; lactam 3-C) | 20 nM | 10 nM | 100 nM | 10 nM | 20 nM | – | – | –
7 | CC(C)C[C@@H]1NC(=O)[C@@H](N(C)C(=O)[C@@H](NC(=O)[C@@H]2CC(F)(F)CN2C(=O)C2(C(F)(F)F)CC(F)(F)C2)C2CC2)CCCCCCCN(C)C(=O)[C@H](Cc2cc(Cl)ccc2-c2cnn(C)c2)N(C)C1=O [Example 343] ({cBuCO(3,3-F2-1-CF3)}-[Pro(4,4-F2)][Gly(cPr)][NMehhhLys(Me)]L[X22]; lactam 3-C) | 20 nM | 10 nM | 670 nM | 10 nM | 20 nM | – | – | –
8 | CC(C)C[C@@H]1NC(=O)[C@@H](N(C)C(=O)[C@@H](NC(=O)[C@@H]2C[C@@H](F)CN2C(=O)C2(C(F)(F)F)CC(F)(F)C2)C2CC2)CCCCCCCN(C)C(=O)[C@H](Cc2cc(Cl)ccc2-c2ccc(N3CCOCC3)cn2)N(C)C1=O [Example 382] ({cBuCO(3,3-F2-1-CF3)}-[Pro(trans-4-F)][Gly(cPr)][NMehhhLys(Me)]L[X186]; lactam 3-C) | 20 nM | 90 nM | 2490 nM | 40 nM | 40 nM | – | – | –
9 | CC(C)C[C@@H]1NC(=O)[C@@H](N(C)C(=O)[C@@H](NC(=O)[C@@H]2C[C@@H](F)CN2C(=O)C2(C(F)(F)F)CC(F)(F)C2)C2CC2)CCCCCCCN(C)C(=O)[C@H](Cc2cc(F)ccc2-c2ccn(S(C)(=O)=O)c2)N(C)C1=O [Example 306] ({cBuCO(3,3-F2-1-CF3)}-[Pro(trans-4-F)][Gly(cPr)][NMehhhLys(Me)]L[X130]; lactam 3-C) | 20 nM | 10 nM | 200 nM | 10 nM | 20 nM | – | – | –
10 | CC(C)COc1ncc(Cl)cc1C[C@H]1C(=O)N(C)CCCCCCC[C@H](N(C)C(=O)[C@@H](NC(=O)[C@@H]2C[C@@H](F)CN2C(=O)[C@@]2(C(F)(F)F)CCCCO2)C2CC2)C(=O)N[C@@H](CC(C)C)C(=O)N1C [Example 229] ({Oxane2carbonyl(2R-CF3)}-[Pro(trans-4-F)][Gly(cPr)][NMehhhLys(Me)]L[NMe3Pal(2-OiBu,5-Cl)]; lactam 3-C) | – | 10 nM | – | 20 nM | – | 20 nM | 100 nM | 20 nM
